In patent US20260217701A1, “SELECTIVE BET INHIBITORS AND USES THEREOF” (Tay Therapeutics Limited, priority 2022, published 2026):
“And” between values parts separate entries of the source, which are not always exact repeats. Identical values can stand only once.

Assay: Dog PK study #3 (Compound A PO once daily 5 days, 5/10/20 mg/kg; PK, body weight, hematology)
Format: in vivo, beagle dogs
Design: Plasma Concentration: unit not given here
Settings: for Neutrophils: range 1.80-10.83; for White Blood Cells: range 4.81-15.67; for Platelets: range 127-393; for Accumulative Index of AUC0-last (Day 5/Day 1) / Accumulative Index of Cmax (Day 5/Day 1): PO
Experimental: For the third dog pharmacokinetic study, three solutions of different concentrations of Compound A were prepared in 5% DMSO/15% PEG-400/80% (10% VE-TPGS) as outlined in Table 2E. The Compound A solutions were administered to animals orally (PO) once daily over a five-day period. Body weight was recorded prior to dosing, and detailed clinical observations were made prior to dosing and throughout the study, as needed.
Animals were divided into Day 1 and Day 5 sample collection groups, with animals in the Day 1 collection group having blood samples taken prior to dosing and at 0.25, 0.5, 1, 2, 4, 8, and 24 hours after dosing on day 1. Animals in the Day 5 collection group having blood samples taken prior to dosing and at 0.25, 0.5, 1, 2, 4, 8, and 24 hours after dosing on day 5. Study groups are outlined in Table 3D.
Blood samples (~0.3 mL) were collected on day according to the following schedule (0.25, 0.5, 1, 2, 4, 8, and 24 h) after day 5 administration of Compound A by venipuncture of peripheral veins except for the dosing vein, and EDTA-K2 was used as anticoagulant. Within 30 minutes of collection, the samples were centrifuged at approximately 2000 times g-force for 10 minutes at 4° C. to obtain blood plasma. The plasma samples were immediately divided into two aliquots (~75 μL each), transferred to a cryogenic vial, and stored in a freezer at −75±15° C. prior to analysis.
The concentration of Compound A in the blood plasma was determined through LC-MS as previously described. Briefly, the experiments were conducted on a DMPK-LCMS-14-SMBA Triple Quad 6500 Plus instrument with an ACQUITY UPLC BEH C18 1.7 μm (50×2.1 mm) column. The matrix was male beagle dog plasma potassium (K2) EDTA A gradient of 95% water (0.1% formic acid and 2 mM HCOONH4)/95% acetonitrile (0.1% formic acid and 2 mM HCOONH4) was used as the mobile phase. The sample flow rate was 0.6 mL/min.
The samples were then vortex-mixed for 10 minutes at 800 rpm and centrifuged for 15 minutes at 3220×g at 4° C. 50 μL aliquots of supernatant were transferred to a clean 96-well plate and centrifuged for 5 minutes at 3220×g at 4° C. Samples were then injected into the LC/MS/MS system for quantitative analysis.
The gathered data were used for pharmacokinetic calculations using T1/2, CO, AUClast, AUCinf, MRTinf, Cl, Vss, and Number of Points for Regression as parameters.
The cell composition (hematology) of blood samples was analyzed at day 5. Analyses identified the total number of white blood cells, neutrophils, lymphocytes, monocytes, eosinophils, basophils, and platelets in collected samples.

[1] = Day 5, 10 mg/kg dose PO, individual animals
[2] = Day 5, 20 mg/kg dose PO, individual animals
[3] = Day 5, Group 1, individual animals
[4] = Day 5, Group 2, individual animals
[5] = Day 5, Group 3, individual animals

Cn1cc(-c2ccccc2)c(-c2cn(C)c(=O)c3[nH]c(-c4cnn(C(F)(F)F)c4)cc23)cc1=O [Compound A, 6-methyl-4-(1-methyl-2-oxo-5-phenyl-1,2-dihydropyridin-4-yl)-2-(1-(trifluoromethyl)-1H-pyrazol-4-yl)-1,6-dihydro-7H-pyrrolo[2,3-c]pyridin-7-one]
Neutrophils (Day 5, 5 mg/kg/day (mean)): 7.08 10^3/μL | White Blood Cells (Day 5, 5 mg/kg/day (mean)): 10.59 103/μL | Platelets (Day 5, 5 mg/kg/day (mean)): 224.0 10^3/μL | Plasma Concentration (Day 5, 10 mg/kg dose PO, time 1, individual animals): 1610 and 2220 | Plasma Concentration (Day 5, 10 mg/kg dose PO, time 1, mean): 1915 | Plasma Concentration (Day 5, 10 mg/kg dose PO, time 2, individual animals): 1740 and 2780 | Plasma Concentration (Day 5, 10 mg/kg dose PO, time 2, mean): 2260 | Plasma Concentration (Day 5, 10 mg/kg dose PO, time 4, individual animals): 1460 and 2310 | Plasma Concentration (Day 5, 10 mg/kg dose PO, time 4, mean): 1885 | Plasma Concentration (Day 5, 10 mg/kg dose PO, time 8, individual animals): 1190 and 1940 | Plasma Concentration (Day 5, 10 mg/kg dose PO, time 8, mean): 1565 | AUC0-last [1]: 36.083 µg·h/mL | AUC(0-inf) [1]: 45.289 µg·h/mL | AUCExtra [1]: 10.6% and 20.3% | AUMCExtra [1]: 32.6% and 51.3% | Cl_F [1]: 7.25 mL/min/kg and 3.68 mL/min/kg | Cmax [1]: 2780 ng/mL | MRT0-inf [1]: 15.4 h | MRT0-last [1]: 9.39 h | Tlast [1]: 24.0 h | T½ [1]: 10.3 h | Vz_F [1]: 4.58 L/kg and 3.27 L/kg | AUC0-last (Day 5, 10 mg/kg dose PO, mean): 28.307 µg·h/mL | AUCExtra (Day 5, 10 mg/kg dose PO, mean): 15.5% | AUMCExtra (Day 5, 10 mg/kg dose PO, mean): 42.0% | Cl_F (Day 5, 10 mg/kg dose PO, mean): 5.47 mL/min/kg | Tlast (Day 5, 10 mg/kg dose PO, mean): 24.0 h | Vz_F (Day 5, 10 mg/kg dose PO, mean): 3.92 L/kg | Basophils (Day 5, 10 mg/kg/day (mean), range 0.00-0.19): 0.07 10^3/μL | Eosinophils (Day 5, 10 mg/kg/day (mean), range 0.00-1.24): 0.40 10^3/μL | Monocytes (Day 5, 10 mg/kg/day (mean), range 0.11-1.08): 0.48 10^3/μL | Lymphocytes (Day 5, 10 mg/kg/day (mean), range 1.42-3.76): 3.31 10^3/μL | Neutrophils (Day 5, 10 mg/kg/day (mean)): 6.59 10^3/μL | White Blood Cells (Day 5, 10 mg/kg/day (mean)): 10.86 103/μL | Platelets (Day 5, 10 mg/kg/day (mean)): 273.0 10^3/μL | Plasma Concentration (Day 5, 20 mg/kg dose PO, time 1, individual animals): 3150 and 2130 | Plasma Concentration (Day 5, 20 mg/kg dose PO, time 1, mean): 2640 | Plasma Concentration (Day 5, 20 mg/kg dose PO, time 2, individual animals): 3510 and 2220 | Plasma Concentration (Day 5, 20 mg/kg dose PO, time 2, mean): 2865 | Plasma Concentration (Day 5, 20 mg/kg dose PO, time 4, individual animals): 3160 and 2040 | Plasma Concentration (Day 5, 20 mg/kg dose PO, time 4, mean): 2600 | Plasma Concentration (Day 5, 20 mg/kg dose PO, time 8, individual animals): 2430 and 2170 | Plasma Concentration (Day 5, 20 mg/kg dose PO, time 8, mean): 2300 | AUC0-last [2]: 43.537 µg·h/mL and 16.801 µg·h/mL | AUC(0-inf) [2]: 49.399 µg·h/mL and 2087.5 µg·h/mL | AUCExtra [2]: 11.9% and 99.2% | AUMCExtra [2]: 35.5% and 100% | Cl_F [2]: 6.75 mL/min/kg and 0.160 mL/min/kg | Cmax [2]: 2220 ng/mL | MRT0-inf [2]: 11.7 h and 955 h | MRT0-last [2]: 8.57 h and 4.03 h | Tlast [2]: 24.0 h and 8.00 h | T½ [2]: 7.64 h | Vz_F [2]: 4.46 L/kg and 9.29 L/kg | AUC0-last (Day 5, 20 mg/kg dose PO, mean): 30.169 µg·h/mL | AUCExtra (Day 5, 20 mg/kg dose PO, mean): 55.6% | AUMCExtra (Day 5, 20 mg/kg dose PO, mean): 67.8% | Cl_F (Day 5, 20 mg/kg dose PO, mean): 3.45 mL/min/kg | Vz_F (Day 5, 20 mg/kg dose PO, mean): 6.87 L/kg | Animal body weight [3]: 8.22 kg and 9.18 kg | Clinical Observation [3]: None | Animal Body Weight, Mean (Day 5, Group 1, mean): 8.70 kg | Animal body weight [4]: 9.31 kg and 8.43 kg | Clinical Observation [4]: None | Animal Body Weight, Mean (Day 5, Group 2, mean): 8.87 kg | Animal body weight [5]: 8.88 kg and 8.11 kg | Clinical Observation [5]: None | Animal Body Weight, Mean (Day 5, Group 3, mean): 8.50 kg | Accumulative Index of AUC0-last (Day 5/Day 1) (dose level 5.00 mg/kg): 1.53 | Accumulative Index of Cmax (Day 5/Day 1) (dose level 5.00 mg/kg): 1.57 | Accumulative Index of AUC0-last (Day 5/Day 1) (dose level 10.0 mg/kg): 1.62 | Accumulative Index of Cmax (Day 5/Day 1) (dose level 10.0 mg/kg): 1.31 | Accumulative Index of AUC0-last (Day 5/Day 1) (dose level 20.0 mg/kg): 0.445 | Accumulative Index of Cmax (Day 5/Day 1) (dose level 20.0 mg/kg): 0.555 | time plasma concentration remained above the free EC50 BD2 (all doses administered): 24 h | white blood cell fraction parameters (day 5): within range | AUC(0-t) (male, beagle, dog, plasma, po, 5 mg/kg, Day 1, 5 mg/kg dose PO, individual animals): 11.6 µg·h/mL
